We go through six compounds from US7514438B2, “Melanin concentrating hormone receptor antagonist” (Amgen, Inc., priority 2003, dated 2009).

For test [1], the target named is T1, rat MCH 1 receptor (rMCH1R) (Rattus norvegicus, UniProt P97639).
T1 construct: expressed in transfected cells; host or cells: HEK 293 (membranes)
Kind of test: 125I-MCH ligand binding assay, rMCH. Conditions: HEK 293 membranes, 0.2 nM 125I native-MCH. The gist of the method: (§1)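 HEK293 membranes expressing rat or human MCH1R (100 µg tissue) were incubated for 90 min at 30 °C with 0.2 nM 125I-native-MCH and test compound in HEPES/MgCl2/BSA buffer with protease inhibitors, pH 7.4. Non-specific binding used 1 µM cold MCH. Filter-bound radioactivity gave IC50 by nonlinear regression.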

Test [2] deals with T2, rat MCH1 receptor (Rattus norvegicus, UniProt P97639). Kind of test: rMCH FLIPR calcium mobilization assay (CHOK1-Gqi cells). It counts as cell-based. Set-up: expressed in transfected cells; host or cells: CHOK1-Gqi. Conditions: CHOK1-Gqi cells, rat MCH1 receptor, 100 μM or less list. The gist of the method: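 Fura-2-loaded CHOK1-Gqi cells expressing rat MCH1R read on FLIPR; agonist mode up to 1 μM; antagonist mode with 10 min pre-incubation (typically 1 μM) then MCH at 5-fold EC50; pA2 from linear regression of MCH EC50 shifts by 10-fold-spaced antagonist concentrations.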
For orientation: A change in cytosolic calcium serves as a functional read-out for many receptors and channels.

The target in test [3] is T2, rat MCH1 receptor. The experiment in a line: HT-PS100 calcium mobilization functional assay. Set-up: expressed in transfected cells. The class given is cell-based.
The target in test [4] is T3, human MCH receptor (Homo sapiens, UniProt Q99705).
T3 construct: expressed in transfected cells
Kind of test: hMCH FLIPR calcium mobilization assay. The class given is cell-based.

Test [5] addresses T4, human MCH 1 receptor (hMCH1R) (Homo sapiens, UniProt Q99705).
T4 construct: expressed in transfected cells; host or cells: HEK 293 (membranes)
Kind of test: 125I-MCH ligand binding assay, hMCH. Conditions: HEK 293 membranes, 0.2 nM 125I native-MCH. The procedure, abridged:
as §1

[6] abbreviates: 100 μM or less list, read-out: IC50 in the rMCH binding assay.
[7] abbreviates: read-out: Ki in the rMCH FLIPR assay.
[8] abbreviates: HEK 293 cells stably transfected with rat MCH1 receptor, 100 nM or less list, read-out: Ki in the HT-PS100 assay.
[9] abbreviates: 100 μM or less list, read-out: Ki in the hMCH FLIPR assay.
Setting [10] is: 100 nM or less list, read-out: IC50 in the hMCH binding assay.
Setting [11] is: 100 μM or less list, read-out: IC50 in the hMCH binding assay.
Setting [12] is: 100 nM or less list, read-out: IC50 in the rMCH binding assay.

Structures are written as SMILES. Read-outs that look alike come from different tables or passages of the source.

T2 sequence (P97639 whole entry): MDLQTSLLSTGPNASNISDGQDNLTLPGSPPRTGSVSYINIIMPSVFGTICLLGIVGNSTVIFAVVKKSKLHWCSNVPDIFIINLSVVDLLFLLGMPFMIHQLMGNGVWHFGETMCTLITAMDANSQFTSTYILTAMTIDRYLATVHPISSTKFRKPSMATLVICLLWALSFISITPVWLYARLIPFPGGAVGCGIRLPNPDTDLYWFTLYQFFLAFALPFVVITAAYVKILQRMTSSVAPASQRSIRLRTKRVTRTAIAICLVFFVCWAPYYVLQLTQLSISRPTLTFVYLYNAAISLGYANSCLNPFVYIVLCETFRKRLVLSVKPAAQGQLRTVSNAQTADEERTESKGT
T1 sequence (P97639 whole entry): as above
T4 sequence (Q99705 whole entry): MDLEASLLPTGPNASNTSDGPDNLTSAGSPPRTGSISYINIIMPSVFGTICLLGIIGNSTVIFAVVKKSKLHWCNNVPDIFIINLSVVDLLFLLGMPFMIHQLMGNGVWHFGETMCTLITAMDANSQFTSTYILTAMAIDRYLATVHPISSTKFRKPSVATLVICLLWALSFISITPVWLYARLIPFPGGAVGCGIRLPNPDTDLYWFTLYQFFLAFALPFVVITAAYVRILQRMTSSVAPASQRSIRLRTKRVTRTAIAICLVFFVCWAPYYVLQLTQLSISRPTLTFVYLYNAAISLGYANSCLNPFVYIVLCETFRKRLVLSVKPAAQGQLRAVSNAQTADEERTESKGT
T3 sequence (Q99705 whole entry): as above

By IC50 is commonly meant the concentration that gives 50% inhibition. Broadly, the Ki is a dissociation constant, usually derived from enzyme kinetics or from competition with a known ligand. For `Cc1cccc(C)c1-n1nnnc1[C@H](c1ccc(-n2ccnc2)cc1)N1CCN(C/C=C/c2ccccc2)CC1` (racemic) [Compound 78, 1-[[1-(2,6-dimethylphenyl)-1H-tetrazol-5-yl]-(4-imidazol-1-ylphenyl)methyl]-4-(3-phenylallyl)piperazine], the IC50 in test [1] (setting [6]) is at most 100 µM; in test [5] (setting [10]), at most 0.1 µM; in test [5] (setting [11]) it was at most 100 µM. Also, the values for the Ki in test [2] (setting [7]), in test [3] (setting [8]) and in test [4] (setting [9]) were at most 100 µM, at most 0.1 µM and at most 100 µM, respectively.
As for `Cc1cccc(C)c1-n1nnnc1[C@H](c1cccc(C#N)c1)N1CCN(C/C=C/c2ccccc2)CC1` (racemic) [Compound 79, 3-{[1-(2,6-dimethylphenyl)-1H-tetrazol-5-yl]-[4-(3-phenylallyl)piperazin-1-yl]methyl}benzonitrile], the IC50 in test [1] (setting [12]) is at most 0.1 µM; in test [1] (setting [6]) it was at most 100 µM; in test [5] (setting [11]), at most 100 µM. Moreover, the inhibitory constant (Ki) in test [2] (setting [7]) was at most 100 µM; in test [3] (setting [8]), at most 0.1 µM; in test [4] (100 nM or less list, read-out: Ki in the hMCH FLIPR assay) it was at most 0.1 µM; in test [4] (setting [9]) it was at most 100 µM.
In the case of `Cc1cccc(C)c1-n1nnnc1[C@H](c1cccc(O)c1)N1CCN(C/C=C/c2ccccc2)CC1` (racemic) [Compound 82, 3-{[1-(2,6-dimethylphenyl)-1H-tetrazol-5-yl]-[4-(3-phenylallyl)piperazin-1-yl]methyl}phenol], the IC50 was at most 100 µM in test [1] (IC50 in the rMCH binding assay, 100 μM or less list) and at most 100 µM in test [5] (IC50 in the hMCH binding assay, 100 μM or less list). Besides, the Ki in test [2] (Ki in the rMCH FLIPR assay) was at most 100 µM; in test [3], at most 0.1 µM; in test [4] (Ki in the hMCH FLIPR assay, 100 nM or less list), at most 0.1 µM; in test [4] (Ki in the hMCH FLIPR assay, 100 μM or less list), at most 100 µM.
For `Cc1cccc(C)c1-n1nnnc1[C@H](c1ccc2c(c1)OCO2)N1CCN(C/C=C/c2ccccc2)CC1` (racemic) [Compound 83, 1-{benzo[1,3]dioxol-5-yl-[1-(2,6-dimethylphenyl)-1H-tetrazol-5-yl]methyl}-4-(3-phenylallyl)piperazine], the IC50 in test [1] (setting [6]) and in test [5] (setting [11]) was at most 100 µM throughout. For the same compound, the Ki in test [2] (setting [7]) is at most 100 µM; in test [3] (setting [8]) it was at most 0.1 µM; in test [4] (setting [9]), at most 100 µM.
For the compound `Cc1cccc(C)c1-n1nnnc1[C@H](c1cccc(OCCO)c1)N1CCN(C/C=C/c2ccccc2)CC1` (racemic) [Compound 84, 2-(3-{[1-(2,6-dimethylphenyl)-1H-tetrazol-5-yl]-[4-(3-phenylallyl)piperazin-1-yl]methyl}phenoxy)ethanol], the IC50 in test [1] (setting [12]) is at most 0.1 µM; in test [1] (setting [6]) it was at most 100 µM; in test [5] (setting [10]) it was at most 0.1 µM; in test [5] (setting [11]) it was at most 100 µM. Also, the Ki in test [2] (setting [7]) is at most 100 µM; in test [3] (setting [8]), at most 0.1 µM; in test [4] (setting [9]), at most 100 µM.
In the case of `Cc1cccc(C)c1-n1nnnc1[C@H](c1ccccc1)N1CCN(C/C=C/c2ccccc2)CC1` [Compound 1, 1-{[1-(2,6-dimethyiphenyl)-1H-tetrazol-5-yl]phenylmethyl}-4-(3-phenylallyl)piperazine], the IC50 in test [1] (setting [12]) is at most 0.1 µM; in test [1] (setting [6]), at most 100 µM; in test [5] (setting [10]) it was at most 0.1 µM; in test [5] (setting [11]), at most 100 µM. Also, the Ki in test [2] (setting [7]) was at most 100 µM; in test [3] (setting [8]), at most 0.1 µM; in test [4] (setting [9]), at most 100 µM.
